Test results: article PMC9811466, “Structural Features Affecting the Interactions and Transportability of LAT1-Targeted Phenylalanine Drug Conjugates” (Molecular Pharmaceutics, 2022)
Where “and” joins values, the source holds several entries; their conditions need not be identical. Equal values may be shown once. Read-outs that look alike come from different tables or passages of the source.

Key:
[1] = system: HEK-MOCK cells; assay: cis-inhibition of [14C]-L-leucine uptake in HEK-MOCK cells; format: cell-based, human; settings: for inhibition at 50 µM / IC50: Homo sapiens; for inhibition at 50 µM / [14C]-L-Leucine uptake inhibition % (50μM): 10 min; for inhibition at 50 µM: read-out: [14C]-L-Leucine uptake inhibition % (50μM); for IC50: read-out: IC50 of [14C]-L-leucine uptake
Description: (§1) In the following experiments, the MCF-7, HEK-hLAT1, and HEK-MOCK cells were cultured, seeded, and preincubated as described above. The HBSS was removed, and the ability of the compounds to inhibit the uptake of a known LAT1 substrate, [^14C]-L-leucine (PerkinElmer, Waltham, MA, USA), was studied by incubating the cells at RT for 10 min in uptake buffer pH 7.4 (250 μL) containing 0.76 μM (0.1 mCi/mL) of [^14C]-L-leucine and 0.025–1800 μM of the studied compound (or HBSS as blank). After incubation, the reaction was stopped with ice-cold HBSS, and the cells were washed two times with ice-cold HBSS. The cells were then lysed with 250 μL of 0.1 M sodium hydroxide, the lysate was mixed with 1.0 mL of Emulsifier safe cocktail (PerkinElmer, Waltham, MA, USA), and the radioactivity was measured with a liquid scintillation counter (MicroBeta^2 counter, PerkinElmer, Waltham, MA, USA). The inhibition of [^14C]-L-leucine in the presence of the studied compounds as compared to the control (HBSS) was calculated as percentages (%).
Using the stably hLAT1/4F2hc expressing cell line, the compounds’ inhibitory efficiencies and uptake kinetics were determined via the cis-inhibition assay and uptake studies, respectively. (Table 1) Cis-inhibition is based on the competition between the ligand and LAT1 substrate [^14C]-L-leucine that results in inhibition of substrate uptake. The competitive uptake with L-leucine is reported as the IC50 value of L-leucine uptake and extent as inhibition percentage (%) at a given concentration. Overall, the inhibition trends of the tested compounds were similar between HEK-hLAT1 and MCF-7 cells. In the next step, more straightforward results were obtained by undertaking direct cellular uptake studies with both HEK-hLAT1 and HEK-MOCK cells. This experiment enabled us to determine not only the uptake kinetics (Vmax and Km) of the ligands but also their preference for LAT1-expressing cells over the comparator HEK-MOCK cells.

[2] = system: HEK-MOCK cells; assay: Concentration-dependent cellular uptake into HEK-MOCK cells; format: cell-based, human; settings: for Vmax: 10 min
Description: (§2) The concentrations for the compounds were in the range of 2–400 μM. Otherwise, the experiment was carried out as described above and analyzed by liquid chromatography coupled with an electrospray ionization (ESI) triple quadrupole mass spectrometer (LC–MS–MS). […]
(§3) The concentration-dependent uptake studies were performed by adding 2–400 μM of the tested compound in 250 μL of prewarmed HBSS buffer on the cell layer. […] After incubation, the cells were washed and lysed as described above. The lysate was collected from wells into an Eppendorf tube and centrifuged at 4 °C, the supernatant was collected, and the intracellular concentrations of studied compounds were analyzed by liquid chromatography coupled with an ESI triple quadrupole mass spectrometer (LC–MS–MS). The results were calculated from the standard curve that was prepared by spiking known amounts of each compound to the cell lysate and normalized to protein concentration. The protein concentrations on each plate were determined as a mean of three samples by Bio-Rad Protein Assay, based on the Bradford dye-binding method, using BSA as a standard protein and measuring the absorbance (595 nm) by a multiplate reader (EnVision, PerkinElmer, Inc., Waltham, MA, USA). All statistical analyses (Michaelis–Menten kinetic parameters) were performed using GraphPad Prism v. 5.03 software (GraphPad Software, San Diego, CA., USA). […]
(§4) After protein precipitation, the samples were centrifuged for 10 min with 10,000 g at 4 °C. The supernatant was then collected and transferred to vials for LC–MS/MS analysis. For BCH and gabapentin, cells were also lysed with 0.1 M NaOH, an aliquot was taken from the lysates, and perchloric acid (PCA) was added to precipitate the proteins. The samples were then centrifuged, and the supernatant was diluted 1:10 with H20 with 0.1% formic acid including the IS and transferred to vials for analysis.
(§5) The samples were analyzed with LC–MS/MS coupled with an Agilent 1200 series Rapid Resolution LC System (Agilent Technologies, Waldbronn, Germany) and an Agilent 6410 Triple Quadrupole with electrospray ionization (ESI) (Agilent Technologies, Palo Alto, CA, USA). […] The aqueous mobile phase was 0.1% formic acid in water (A), while the organic mobile phase was 0.1% formic acid in acetonitrile (B). […] For compound 4: 0–4 min 10% → 90% B, 4–6 min 90% B, 6–6.1 min 90% → 10%, 6.1–9 min 10%. For compound 5: 0–1 min 20% → 95% B, 1–4 min 95%, 4–4.1 min 95% → 20%, 4.1–7 min 20%. For compounds 6 and 9: 0–2 min 10% → 95%, 2–6 min 95%, 6–6.1 min 95% → 10%, 6.1–9 min 10%. For compound 8: 0–1 min 20% → 80%, 1–5.2 min 80%, 5.2–5.3 min 80% → 20%, 5.3–9 min 20%.

[3] = target: T1, hLAT1/4F2hc (Homo sapiens, UniProt Q01650); assay: cis-inhibition of [14C]-L-leucine uptake in HEK-hLAT1 cells; format: cell-based; settings: for inhibition at 50 µM: read-out: [14C]-L-Leucine uptake inhibition % (50μM)
T1 construct: Invitrogen (host cells)
Description: as §1
Using the stably hLAT1/4F2hc expressing cell line, the compounds’ inhibitory efficiencies and uptake kinetics were determined via the cis-inhibition assay and uptake studies, respectively. (Table 1) Cis-inhibition is based on the competition between the ligand and LAT1 substrate [^14C]-L-leucine that results in inhibition of substrate uptake. The competitive uptake with L-leucine is reported as the IC50 value of L-leucine uptake and extent as inhibition percentage (%) at a given concentration.

[4] = target: T1, hLAT1/4F2hc; assay: Concentration-dependent cellular uptake into HEK-hLAT1 cells (LC-MS/MS, Michaelis-Menten); format: cell-based; settings: for Vmax / Km: HEK-hLAT1 cells; for Vmax: 2-400 μM, 10 min
Description: as §2, §3, §4, §5

[5] = target: T1, hLAT1/4F2hc; assay: as above; format: cell-based; settings: difference in uptake HEK-hLAT1 vs HEK-MOCK, with docking poses; 2-100 μM curves
[6] = target: T2, LAT1 in MCF-7 human breast cancer cells (Homo sapiens, UniProt Q01650); assay: cis-inhibition of [14C]-L-leucine uptake in MCF-7 cells; format: cell-based; settings: for IC50: MCF-7 cells; for inhibition at 50 µM: MCF7, MCF-7 cells, 50 μM compound
T2 construct: wild-type MCF-7 human breast cancer cell line; endogenous in cells; host or cells: MCF-7 human breast cancer cells (wild type)
Description: Cells were cultured in DMEM (Gibco, ThermoFisher Scientific, Waltham, MA, USA) supplemented with L-glutamine (2 mM; ThermoFisher Scientific, Waltham, MA, USA), heat-inactivated fetal bovine serum (10%; Gibco, ThermoFisher Scientific, Waltham, MA, USA), penicillin (50 U/mL)-streptomycin (50 μg/mL) solution (ThermoFisher Scientific, Waltham, MA, USA), and hygromycin B solution (100 μg/mL) for transfected cells. HEK-hLAT1 and HEK-MOCK cells (passages 7–20) were seeded at a density of 5 × 10^5 cells/wells onto 24-well plates. The cells were used in the characterization, competition, and uptake studies 2 days after seeding. MCF-7 cells were seeded at a density of 1 × 10^5 and were used in the competition studies 1 day after seeding. The culture medium was removed, and the cells were washed with prewarmed Hanks’ balanced salt solution (HBSS; 125 mM NaCl, 4.8 mM KCl, 1.2 mM MgSO4, 1.2 mM KH2PO4, 1.3 mM CaCl2, 5.6 mM D-glucose, and 25 mM HEPES, pH 7.4). The cells were then incubated with HBSS at 37 °C for 10 min before the experiments.
as §1

[7] = system: MCF-7 cells; settings: MCF-7 cells, previous studies; cited from earlier work
[8] = HEK-MOCK cells, 50 μM compound, 0.76 μM [14C]-L-leucine, known substrates
[9] = HEK-MOCK cells, known substrates
[10] = known LAT1 substrates, 2-400 μM, n = 3
[11] = HEK-hLAT1 cells, 50 μM compound, 0.76 μM [14C]-L-leucine, 10 min, known substrates
[12] = HEK-hLAT1 cells, known substrates, read-out: IC50 of [14C]-L-leucine uptake
[13] = known LAT1 substrates, n = 3, read-out: Km
[14] = HEK-hLAT1 cells, 50 μM compound, compounds 1-12
[15] = HEK-hLAT1 cells, compounds 1-12, read-out: IC50 of [14C]-L-leucine uptake

T1 sequence (Q01650 whole entry): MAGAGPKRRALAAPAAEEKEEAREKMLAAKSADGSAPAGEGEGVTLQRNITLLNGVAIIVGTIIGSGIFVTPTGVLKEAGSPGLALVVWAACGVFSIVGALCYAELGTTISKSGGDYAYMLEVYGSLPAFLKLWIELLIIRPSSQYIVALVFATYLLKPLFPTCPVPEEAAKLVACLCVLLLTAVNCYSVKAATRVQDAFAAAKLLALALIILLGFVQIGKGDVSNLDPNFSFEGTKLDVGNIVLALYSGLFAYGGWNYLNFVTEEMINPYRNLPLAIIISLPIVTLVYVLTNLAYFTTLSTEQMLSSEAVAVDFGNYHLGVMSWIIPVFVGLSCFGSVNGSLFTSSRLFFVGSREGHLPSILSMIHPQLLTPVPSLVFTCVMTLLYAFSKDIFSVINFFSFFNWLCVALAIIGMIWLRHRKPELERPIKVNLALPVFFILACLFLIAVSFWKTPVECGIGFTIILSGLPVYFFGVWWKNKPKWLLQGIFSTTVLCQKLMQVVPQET
T1 sequence (P08195 102-630 partner): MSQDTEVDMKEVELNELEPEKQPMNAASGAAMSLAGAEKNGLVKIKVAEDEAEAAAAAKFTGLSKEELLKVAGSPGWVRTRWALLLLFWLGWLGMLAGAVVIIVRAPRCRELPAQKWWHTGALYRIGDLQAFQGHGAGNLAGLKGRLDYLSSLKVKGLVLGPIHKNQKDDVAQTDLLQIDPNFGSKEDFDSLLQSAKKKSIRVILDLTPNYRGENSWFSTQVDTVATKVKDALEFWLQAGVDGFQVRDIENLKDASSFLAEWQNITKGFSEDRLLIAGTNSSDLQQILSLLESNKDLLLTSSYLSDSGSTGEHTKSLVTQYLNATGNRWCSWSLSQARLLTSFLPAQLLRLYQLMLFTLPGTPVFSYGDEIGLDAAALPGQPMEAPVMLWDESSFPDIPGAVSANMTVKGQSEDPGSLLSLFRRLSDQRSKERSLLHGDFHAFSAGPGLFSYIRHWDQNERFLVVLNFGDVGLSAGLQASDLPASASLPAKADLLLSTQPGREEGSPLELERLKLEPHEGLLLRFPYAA
T2 sequence (Q01650 whole entry): as the sequence (Q01650 whole entry) above
T2 sequence (P08195 102-630 partner): as the sequence (P08195 102-630 partner) above

Structure (SMILES)	Vmax [2, 10]	Km ([2]; known LAT1 substrates, n = 3) [µM]	IC50 [3, 12] [µM]	Vmax ([4]; known LAT1 substrates, n = 3)	interaction class with LAT1 (interaction and transportability) [5]	IC50 [3, 15] [µM]	IC50 [6] [µM]	inhibition at 50 µM [3, 14] [%]	inhibition at 50 µM [6] [%]	other results
NC1(C(=O)O)CC2CCC1C2 (stereo not shown) [BCH, reference compound]	2.6±0.6 nmol/min/mg of protein	155 ± 50	28							inhibition at 50 µM [1, 8]: 5.8 ± 1%; IC50 [1, 9]: 203 µM; inhibition at 50 µM [3, 11]: 51.8 ± 2.1%
N[C@@H](Cc1ccc(O)c(O)c1)C(=O)O [L-DOPA, reference compound]	2.8±0.9 nmol/min/mg of protein	225 ± 90	4.1	15±7.6 nmol/min/mg of protein						Km [4, 13]: 763 ± 413 µM; [14C]-L-Leucine uptake inhibition % (50μM) [1, 8]: no inhibition
NCC1(CC(=O)O)CCCCC1 [Gabapentin, reference compound]	4.7±1.6 nmol/min/mg of protein	182 ± 86	36	18±9.9 nmol/min/mg of protein						Km [4, 13]: 552 ± 334 µM; [14C]-L-Leucine uptake inhibition % (50μM) [1, 8]: no inhibition; IC50 [1, 9]: > 1000 µM; inhibition at 50 µM [3, 11]: 46.7 ± 1.7%
CCCC(CCC)C(=O)Nc1cccc(C[C@H](N)C(=O)O)c1 [Compound 4]					highest interactions	> 100	81 ± 1.4			Vmax ([4]; compounds 1-12): 1027 pmol/min/mg of protein and 1027±170 pmol/min/mg of protein; Km ([4]; compounds 1-12, read-out: Km): 111 ± 30 µM; potency for hLAT1 relative to HEK-MOCK (Km ratio) ([4]; Km 111 μM HEK-hLAT1 vs 277 μM HEK-MOCK): more than two-fold; Vmax (uptake rate) in HEK-hLAT1 cells relative to HEK-MOCK cells ([4]; ratio of Vmax values): around three; Km ([2]; compounds 1-12): 277 µM; Vmax ([2]; compounds 1-12, 2-400 μM): 292 pmol/min/mg of protein and 292±710 pmol/min/mg of protein; [14C]-L-Leucine uptake inhibition % (50μM) [3, 14]: no inhibition
CC(C)Cc1ccc(C(C)C(=O)Nc2cccc(C[C@H](N)C(=O)O)c2)cc1 (stereo partly shown) [Compound 7]					medium interactions	57	20 ± 1.3	20 ± 2.5	69 ± 4.3	
CC(C(=O)Nc1cccc(C[C@H](N)C(=O)O)c1)c1ccc(-c2ccccc2)c(F)c1 (stereo partly shown) [Compound 11]					not interacting with LAT1	> 100	2.2 ± 1.3	26.4 ± 3.1	84 ± 3.1	
N[C@@H](Cc1c[nH]c2ccccc12)C(=O)O [Tryptophan, L-tryptophan, reference compound]	0.3±0.2 nmol/min/mg of protein	482 ± 496	24	12±19 nmol/min/mg of protein						inhibition at 50 µM [1]: 19.6 ± 6.2%; IC50 [1]: 163 µM; inhibition at 50 µM [3]: 50.2 ± 1.7%
N[C@@H](Cc1cccc(NC(=O)c2ccccc2O)c1)C(=O)O [Compound 1]					highest interactions	> 100	3.3 ± 1.3	8.1 ± 6.9	66 ± 3.9	Vmax ([4]; compounds 1-12): 3714±371 pmol/min/mg of protein; Km ([4]; compounds 1-12, read-out: Km): 105 ± 17 µM; Km ([2]; compounds 1-12): 10 ± 2.7 µM; Vmax ([2]; compounds 1-12, 2-400 μM): 94±5.4 pmol/min/mg of protein
CNC(=O)COc1ccc(-c2c(C#N)c(NC(=O)c3cccc(C[C@H](N)C(=O)O)c3)n3c(nc4ccccc43)c2C#N)cc1 [Compound 6]					medium interactions	> 100		29 ± 2.8	48 ± 12	Km ([2]; compounds 1-12): 201 ± 344 µM; Vmax ([2]; compounds 1-12, 2-400 μM): 74±92 pmol/min/mg of protein
N[C@@H](Cc1cccc(C(=O)NCCc2ccc(O)c(O)c2)c1)C(=O)O [Compound 3]					highest interactions	> 100	3.3 ± 1.3	4.27 ± 3.94		Vmax [7]: < 3 pmol/min/mg
N[C@@H](Cc1ccc(N(CCCl)CCCl)cc1)C(=O)O [Melphalan, reference compound]	0.07±0.09 nmol/min/mg of protein	91 ± 21		0.08±0.01 nmol/min/mg of protein						Km ([4]; known LAT1 substrates, n = 3): 35 ± 7 µM; [14C]-L-Leucine uptake inhibition % (50μM) [1, 8]: no inhibition; IC50 [3]: 6.6 µM; inhibition at 50 µM [3]: 38.2 ± 2.4%
COc1ccc2cc(C(C)C(=O)Nc3cccc(C[C@H](N)C(=O)O)c3)ccc2c1 (stereo partly shown) [Compound 12]					not interacting with LAT1	> 100	5.6 ± 1.3	28 ± 2.6	83 ± 1.7	
